Laboratory results: the supplement of paper PMC8617591

What was measured:
[1] = tested on: Mycobacterium tuberculosis Erdman (autoluminescent); experiment: total FIC50 (Loewe) at 50% inhibition, three-drug combination (log2); higher = more antagonistic
Procedure: (§1)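 DiaMOND equipotent three-drug combination dose responses (10 doses, 1.5- or 2-fold spacing, centred on IC90) against autoluminescent M. tuberculosis Erdman in 8 in vitro models. Read-out is OD600, or luminescence for the intracellular and dormancy models, normalised to untreated wells. Hill-fit Einf, AUC25 and GRinf are potency metrics; FIC50 and FIC90 are total Loewe fractional inhibitory concentrations as log2 (negative = synergy).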

[2] = tested on: Mycobacterium tuberculosis Erdman (autoluminescent); experiment: total FIC90 (Loewe) at 90% inhibition, three-drug combination (log2); higher = more antagonistic
Procedure: as §1

[3] = tested on: Mycobacterium tuberculosis Erdman (autoluminescent); experiment: Einf, fitted maximum growth inhibition of three-drug combination (fraction); higher = stronger maximal inhibition
Procedure: as §1

[4] = tested on: Mycobacterium tuberculosis Erdman (autoluminescent); experiment: AUC25, normalised area under dose response up to IC25 (three-drug combination) (fraction (0-1)); higher = more potent at low dose
Procedure: as §1

[5] = tested on: Mycobacterium tuberculosis Erdman (autoluminescent); experiment: GRinf, maximum normalised growth rate inhibition (three-drug combination) (unitless (-1 to 1)); higher = less effect (negative = killing)
Procedure: as §1

NNC(=O)c1ccncc1 [isoniazid] + COc1c(N2C[C@@H]3CCCN[C@@H]3C2)c(F)cc2c(=O)c(C(=O)O)cn(C3CC3)c12 [moxifloxacin] + NC(=O)c1cnccn1 [pyrazinamide]
Conditions | AUC25, [4] | Einf, [3] | GRinf, [5] | total FIC50, [1] | total FIC90, [2]
in vitro model: acidic pH 5.7, time point: constant (~7 days, model-specific) | 0.0943 | 0.811 | -0.673 | -1.74 | –
in vitro model: acidic pH 5.7, time point: terminal (~4-5 doublings, model-specific) | 0.0851 | 0.971 | -0.382 | -2.52 | -1.33
in vitro model: intracellular J774, time point: constant = terminal | – | 0.997 | -0.252 | – | 0.681

Conditions | AUC25, [4] | Einf, [3] | GRinf, [5] | total FIC50, [1] | total FIC90, [2]
in vitro model: butyrate, time point: constant (~7 days, model-specific) | 0.0913 | 0.951 | -0.232 | -1.78 | -0.791
in vitro model: butyrate, time point: terminal (~4-5 doublings, model-specific) | 0.0549 | 0.975 | -0.195 | -1.66 | -1.72
in vitro model: cholesterol 0.05 mM, time point: constant (~7 days, model-specific) | 0.0921 | 0.697 | -0.188 | – | –
in vitro model: cholesterol 0.05 mM, time point: terminal (~4-5 doublings, model-specific) | 0.0805 | 0.887 | -0.177 | -0.327 | –
in vitro model: cholesterol-high 0.2 mM, time point: constant (~7 days, model-specific) | 0.0786 | 0.911 | -0.235 | 0.416 | –
in vitro model: cholesterol-high 0.2 mM, time point: terminal (~4-5 doublings, model-specific) | 0.0668 | 0.981 | -0.527 | 0.819 | 0.533
in vitro model: dormancy (butyrate + nitrate, low O2), time point: constant (~7 days, model-specific) | 0.0724 | 0.877 | 0.245 | -2.06 | -2.38
in vitro model: dormancy (butyrate + nitrate, low O2), time point: terminal (~4-5 doublings, model-specific) | 0.0689 | 0.984 | -0.161 | -1.92 | -1.58
in vitro model: standard 7H9 glycerol, time point: constant = terminal | 0.0639 | 0.983 | -0.168 | – | –
in vitro model: valerate, time point: constant (~7 days, model-specific) | 0.117 | 0.877 | 0.0249 | -1.97 | –
in vitro model: valerate, time point: terminal (~4-5 doublings, model-specific) | 0.0825 | 0.931 | 0.0159 | -1.91 | -1.83

NNC(=O)c1ccncc1 [isoniazid] + COc1c(N2C[C@@H]3CCCN[C@@H]3C2)c(F)cc2c(=O)c(C(=O)O)cn(C3CC3)c12 [moxifloxacin] + O=[N+]([O-])c1cn2c(n1)OC[C@@H](OCc1ccc(OC(F)(F)F)cc1)C2 [pretomanid]
Conditions | AUC25, [4] | Einf, [3] | GRinf, [5] | total FIC50, [1] | total FIC90, [2]
in vitro model: acidic pH 5.7, time point: constant (~7 days, model-specific) | 0.105 | 0.752 | -0.684 | 4.5 | –
in vitro model: acidic pH 5.7, time point: terminal (~4-5 doublings, model-specific) | 0.0907 | 0.959 | -0.532 | 4.46 | 4.49
in vitro model: intracellular J774, time point: constant = terminal | – | 0.994 | -0.481 | – | 0.579

Conditions | AUC25, [4] | Einf, [3] | GRinf, [5] | total FIC50, [1] | total FIC90, [2]
in vitro model: butyrate, time point: constant (~7 days, model-specific) | 0.0536 | 0.929 | -0.0807 | 2.83 | 2.02
in vitro model: butyrate, time point: terminal (~4-5 doublings, model-specific) | 0.0441 | 0.974 | -0.0869 | 2.53 | 2.38
in vitro model: cholesterol 0.05 mM, time point: constant (~7 days, model-specific) | 0.105 | 0.746 | -0.26 | 1.75 | –
in vitro model: cholesterol 0.05 mM, time point: terminal (~4-5 doublings, model-specific) | 0.0994 | 0.957 | -0.35 | 8.24 | 1.68
in vitro model: cholesterol-high 0.2 mM, time point: constant (~7 days, model-specific) | 0.0779 | 0.892 | -0.144 | 0.366 | –
in vitro model: cholesterol-high 0.2 mM, time point: terminal (~4-5 doublings, model-specific) | 0.0578 | 0.977 | -0.646 | 0.407 | 0.342
in vitro model: dormancy (butyrate + nitrate, low O2), time point: constant (~7 days, model-specific) | 0.0796 | 0.873 | 0.251 | 2.42 | 2.29
in vitro model: dormancy (butyrate + nitrate, low O2), time point: terminal (~4-5 doublings, model-specific) | 0.0682 | 0.986 | -0.111 | 2.34 | 2.6
in vitro model: standard 7H9 glycerol, time point: constant = terminal | 0.0818 | 0.979 | -0.202 | 1.14 | 0.349
in vitro model: valerate, time point: constant (~7 days, model-specific) | 0.107 | 0.898 | -0.0314 | 2.35 | –
in vitro model: valerate, time point: terminal (~4-5 doublings, model-specific) | 0.071 | 0.948 | -0.0412 | 2.43 | 2.4

NNC(=O)c1ccncc1 [isoniazid] + NC(=O)c1cnccn1 [pyrazinamide] + CO[C@H]1/C=C/O[C@@]2(C)Oc3c(C)c(O)c4c(O)c(c(/C=N/N5CCN(C6CCCC6)CC5)c(O)c4c3C2=O)NC(=O)/C(C)=C\C=C\[C@H](C)[C@H](O)[C@@H](C)[C@@H](O)[C@@H](C)[C@H](OC(C)=O)[C@@H]1C [rifapentine]
Conditions | AUC25, [4] | Einf, [3] | GRinf, [5] | total FIC50, [1] | total FIC90, [2]
in vitro model: acidic pH 5.7, time point: constant (~7 days, model-specific) | 0.096 | 0.925 | -0.35 | -3.55 | –
in vitro model: acidic pH 5.7, time point: terminal (~4-5 doublings, model-specific) | 0.0425 | 0.985 | -0.234 | -2.67 | -3.81
in vitro model: intracellular J774, time point: constant = terminal | – | 0.987 | -0.309 | – | 0.243

Conditions | AUC25, [4] | Einf, [3] | GRinf, [5] | total FIC50, [1] | total FIC90, [2]
in vitro model: butyrate, time point: constant (~7 days, model-specific) | 0.0899 | 0.924 | -0.00381 | -1.95 | 0.6
in vitro model: butyrate, time point: terminal (~4-5 doublings, model-specific) | 0.0698 | 0.969 | 0.0193 | -1.85 | -1.91
in vitro model: cholesterol 0.05 mM, time point: constant (~7 days, model-specific) | 0.108 | 0.706 | -0.183 | – | –
in vitro model: cholesterol 0.05 mM, time point: terminal (~4-5 doublings, model-specific) | 0.0828 | 0.893 | -0.166 | -0.19 | –
in vitro model: cholesterol-high 0.2 mM, time point: constant (~7 days, model-specific) | 0.0744 | 0.905 | -0.222 | 0.738 | –
in vitro model: cholesterol-high 0.2 mM, time point: terminal (~4-5 doublings, model-specific) | 0.0802 | 0.997 | -0.658 | 1.17 | 1.11
in vitro model: dormancy (butyrate + nitrate, low O2), time point: constant (~7 days, model-specific) | 0.0611 | 0.883 | 0.232 | -2.31 | -2.4
in vitro model: dormancy (butyrate + nitrate, low O2), time point: terminal (~4-5 doublings, model-specific) | 0.0351 | 0.973 | -0.0606 | -2.22 | -2.43
in vitro model: standard 7H9 glycerol, time point: constant = terminal | 0.066 | 0.915 | 0.0607 | -5.95 | –
in vitro model: valerate, time point: constant (~7 days, model-specific) | 0.118 | 0.878 | -0.183 | -1.89 | –
in vitro model: valerate, time point: terminal (~4-5 doublings, model-specific) | 0.0446 | 0.949 | -0.0194 | -1.1 | -0.889
